pEC50, pIC50: −log10 of the molar value.
Experiments:
[1] = molecular target: PD-1/PD-L1 (Homo sapiens (Human), UniProt Q9NZQ7); experiment: Homogeneous Time-Resolved Fluorescence (HTRF) PD-1/PD-L1 binding assay; conditions: recombinant human PD-1 and PD-L1, 25° C., pH 7.4
In short: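 His-tagged PD-L1 (19-238, 10 nM) and Fc-tagged PD-1 (25-167, 3 nM) preincubated 40 min with inhibitors in PBS pH 7.4, 0.05% Tween-20, 0.1% BSA, 1% DMSO, 25 °C. Eu anti-IgG (1 nM) and anti-His-APC (20 nM) added, 60 min at 25 °C; 665/620 nm ratio fitted for IC50.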

[2] = tested on: U2OS/PD-L1 cells and Jurkat-PD-1-SHP cells; experiment: Src homology region 2 domain-containing phosphatase (SHP) assay; format: cell-based; conditions: Homo sapiens; U2OS/PD-L1 cells with Jurkat-PD-1-SHP cells, 2 hours
In short: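 U2OS/PD-L1 cells (5000/well) in RPMI1640 with 1% FBS were treated with serially diluted compounds (0.05% DMSO final) and co-incubated with 5,000 Jurkat-PD-1-SHP cells for 2 h at 37 °C. PathHunter enzyme-fragment chemiluminescence was read after 1 h at room temperature. IC50 came from percent-of-control activity versus log concentration.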

[3] = tested on: PD-L1 aAPC/CHO-K1 cells and Jurkat-PD-1-NFAT effector cells; experiment: Nuclear factor of activated T-cells (NFAT) assay; format: cell-based; conditions: Cricetulus griseus; PD-L1 aAPC/CHO-K1 cells with Jurkat-PD-1-NFAT effector cells, 24 hours
In short: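 PD-L1 aAPC/CHO-K1 cells co-cultured with Jurkat-PD-1-NFAT effector cells in RPMI 1640 with 1% FBS, compound top concentration 2 μM, 0.4% DMSO, 24 h at 37 °C. Bio-Glo luminescence read; fold induction normalized to DMSO wells, maximum induction relative to control compound, EC50 from percent control activity versus log concentration.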

[4] = molecular target: PD-L1 (Homo sapiens (Human), UniProt Q9NZQ7); experiment: PD-L1 whole blood internalization assay; format: cell-based; conditions: 1 ng/ml human interferon γ, PD-L1 expression on CD14+ cells, read-out: Whole Blood (24 HR) IC50
In short: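 Normal human whole blood was exposed to a range of test compound concentrations together with 1 ng/ml human interferon γ, then stained for PD-L1 and CD14 for 30 minutes at room temperature in the dark. After red cell lysis/fixation and centrifugation, CD14+ cells were analyzed by flow cytometry for PD-L1 MFI, and IC50 values came from percent inhibition versus log concentration fits.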

PD-1/PD-L1, sequence (Q9NZQ7 19-238): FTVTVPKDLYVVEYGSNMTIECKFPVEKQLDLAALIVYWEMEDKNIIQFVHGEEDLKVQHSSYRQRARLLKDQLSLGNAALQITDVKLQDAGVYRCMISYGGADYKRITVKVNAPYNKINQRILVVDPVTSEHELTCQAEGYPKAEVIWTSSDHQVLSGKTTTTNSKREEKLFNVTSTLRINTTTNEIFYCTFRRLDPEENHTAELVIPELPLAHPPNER
PD-L1, sequence (Q9NZQ7 19-290): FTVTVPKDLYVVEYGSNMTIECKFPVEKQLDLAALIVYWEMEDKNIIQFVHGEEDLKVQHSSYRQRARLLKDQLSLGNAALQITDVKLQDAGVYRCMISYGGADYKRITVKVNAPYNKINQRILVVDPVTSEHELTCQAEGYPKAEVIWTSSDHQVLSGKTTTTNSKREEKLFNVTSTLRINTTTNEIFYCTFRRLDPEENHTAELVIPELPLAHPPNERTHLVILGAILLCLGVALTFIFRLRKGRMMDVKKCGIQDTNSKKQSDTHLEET

| pIC50 [1] | pIC50 [2] | pIC50 [4] | Structure (SMILES) | pEC50 [3] |
| --- | --- | --- | --- | --- |
| ≥ 8.00 | ≥ 8.00 | 7.00 to 8.00 | Cc1nc(Nc2cccc(-c3cccc(-c4nc5cc(CN6CCC(C(=O)O)CC6)cc(C#N)c5o4)c3C)c2C)c2ncc(CN[C@@H](C)CO)cc2n1 [Example 4, (S)-1-((7-cyano-2-(3′-(7-((1-hydroxypropan-2-ylamino)methyl)-2-methylpyrido[3,2-d]pyrimidin-4-ylamino)-2,2′-dimethylbiphenyl-3-yl)benzo[d]oxazol-5-yl)methyl)piperidine-4-carboxylic Acid] | 7.00 to 8.00 |
| ≥ 8.00 | ≥ 8.00 | 7.00 to 8.00 | Cc1nc(Nc2cccc(-c3cccc(-c4nc5cc(CN6CCC(C(=O)O)CC6)cc(C#N)c5o4)c3C)c2C)c2ncc(CN3CC[C@](C)(O)C3)cc2n1 [Example 3, (S)-1-((7-cyano-2-(3′-(7-((3-hydroxy-3-methylpyrrolidin-1-yl)methyl)-2-methylpyrido[3,2-d]pyrimidin-4-ylamino)-2,2′-dimethylbiphenyl-3-yl)benzo[d]oxazol-5-yl)methyl)piperidine-4-carboxylic Acid] | 7.00 to 8.00 |
| ≥ 8.00 | ≥ 8.00 | 7.00 to 8.00 | Cc1c(Nc2nc(N)nc3cc(CN4CC[C@@H](O)C4)cnc23)cccc1-c1cccc(-c2nc3cc(CN4CCC(C(=O)O)CC4)cc(C#N)c3o2)c1C [Example 29, (R)-1-((2-(3′-(2-amino-7-((3-hydroxypyrrolidin-1-yl)methyl)pyrido[3,2-d]pyrimidin-4-ylamino)-2,2′-dimethylbiphenyl-3-yl)-7-cyanobenzo[d]oxazol-5-yl)methyl)piperidine-4-carboxylic Acid] | 7.00 to 8.00 |
| ≥ 8.00 | ≥ 8.00 | 7.00 to 8.00 | Cc1nc(Nc2cccc(-c3cccc(-c4nc5cc(CN6CCC(C(=O)O)CC6)cc(C#N)c5o4)c3C)c2C)c2ncc(CN3CC[C@@](C)(O)C3)cc2n1 [Example 2, (R)-1-((7-cyano-2-(3′-(7-((3-hydroxy-3-methylpyrrolidin-1-yl)methyl)-2-methylpyrido[3,2-d]pyrimidin-4-ylamino)-2,2′-dimethylbiphenyl-3-yl)benzo[d]oxazol-5-yl)methyl)piperidine-4-carboxylic Acid] | 7.00 to 8.00 |
| ≥ 8.00 | 7.00 to 8.00 | 6.30 to 7.00 | Cc1c(Nc2nc(C3CC3)nc3cc(CN4CC[C@@H](O)C4)cnc23)cccc1-c1cccc(-c2nc3cc(CN4CC[C@@H](C(=O)O)C4)cc(C#N)c3o2)c1C [Example 28, (R)-1-((7-cyano-2-(3′-(2-cyclopropyl-7-(((R)-3-hydroxypyrrolidin-1-yl)methyl)pyrido[3,2-d]pyrimidin-4-ylamino)-2,2′-dimethylbiphenyl-3-yl)benzo[d]oxazol-5-yl)methyl)pyrrolidine-3-carboxylic Acid] | 7.00 to 8.00 |
| ≥ 8.00 | ≥ 8.00 | 7.00 to 8.00 | Cc1c(Nc2nc(C(F)F)nc3cc(CN4CC[C@@](C)(O)C4)cnc23)cccc1-c1cccc(-c2nc3cc(CN4CCC(C(=O)O)CC4)cc(C#N)c3o2)c1C [Example 30, (R)-1-((7-cyano-2-(3′-(2-(difluoromethyl)-7-((3-hydroxy-3-methylpyrrolidin-1-yl)methyl)pyrido[3,2-d]pyrimidin-4-ylamino)-2,2′-dimethylbiphenyl-3-yl)benzo[d]oxazol-5-yl)methyl)piperidine-4-carboxylic Acid] | ≥ 8.00 |
| ≥ 8.00 | ≥ 8.00 | 7.00 to 8.00 | Cc1nc(Nc2cccc(-c3cccc(-c4nc5cc(CN6CC[C@@H](C(=O)O)C6)cc(C#N)c5o4)c3C)c2C)c2ncc(CN3CC[C@](C)(O)C3)cc2n1 [Example 8, (R)-1-((7-cyano-2-(3′-(7-(((S)-3-hydroxy-3-methylpyrrolidin-1-yl)methyl)-2-methylpyrido[3,2-d]pyrimidin-4-ylamino)-2,2′-dimethylbiphenyl-3-yl)benzo[d]oxazol-5-yl)methyl)pyrrolidine-3-carboxylic Acid] | 7.00 to 8.00 |

Reference: patent US10669271B2, “Heterocyclic compounds as immunomodulators” (Incyte Corporation, priority 2018, dated 2020)
